Assay results taken from patent US10076525B2, “Sex steroid precursors alone or in combination with selective estrogen receptor modulators for the prevention and treatment of dyspareunia in postmenopausal women” (ENDORECHERCHE, INC., priority 2004, dated 2018).

Key:
[1] = tested on: ERα; assay: Immunohistochemistry of ERα in fifth vaginal segment; format: in vivo, rat; settings: OVX rats, 36 wk
Description: Animals from the intact and OVX control groups received the vehicle alone.
Immunostaining was performed using Zymed SP kits (San Francisco, Calif.). Paraffin sections (4 μm) were deparaffinized in toluene and rehydrated through ethanol. Endogenous peroxidase activity was eliminated by preincubation with 3% H2O2 in methanol for 30 min. A microwave retrieval technique using citrate buffer (Tacha and Chen, 1994) was applied. After cooling the slides, non-specific binding was blocked using 10% goat serum for 20 min. Sections were then incubated for 1.5 h at room temperature with ERα (AB-1, Calbiochem, California), AR (N-20, Santa Cruz Biotechnology, California) or PR (Ab-4, NeoMarkers, California) antibodies, at 1:200, 1:250 and 1:250 respectively. After washing in PBS buffer, sections were incubated with biotinylated anti-rabbit secondary antibody for 10 min and thereafter with streptavidin-peroxidase for another 10 min. Diaminobenzidine was used as the chromogen to visualize the biotin/streptavidin-peroxidase complex, under microscope monitoring. Counterstaining was performed using #2 Gill's hematoxylin for 30 sec. For controls, immunoabsorption with an excess of the peptide used to raise the antibody, or substitution with non immune rabbit IgG, was performed.

[2] = Serum concentration of DHEA after intravaginal application; format: in vivo; settings: female, rat
From the text: The insertion into the vagina of one suppository began on day 5 of the study and was continued once daily until day 18 of the study, for a total of 14 days of treatment. The suppository was gently placed in the vaginal opening and then delicately pushed about 2-3 mm inside the vagina with the help of a small, smooth glass stick, disinfected in 70% alcohol and dried between each animal.

## C[C@]12CC[C@H](O)CC1=CC[C@@H]1[C@@H]2CC[C@]2(C)C(=O)CC[C@@H]12 [DHEA, dehydroepiandrosterone]
[1]; epithelium
  ERα: labeling intensity: ++
  ERα: semi-quantitative evaluation of labeled nuclei: 2
[1]; lamina propria
  ERα: labeling intensity: +++
  ERα: semi-quantitative evaluation of labeled nuclei: 2
[1]; muscularis
  ERα: labeling intensity: +++
  ERα: semi-quantitative evaluation of labeled nuclei: 3
[2]; 0.33 mg
  AUC: 32 ± 4 ng·h/mL
[2]; 0.66 mg
  AUC: 50 ± 7 ng·h/mL
[2]; 1 mg
  AUC: 131 ± 23 ng·h/mL
